Measurements published in patent US6770676B2, “Dicarboxylic acid derivatives” (Taisho Pharmaceutical Co., Ltd., priority 2000, dated 2004).

What was measured:
[1] = target: T1, metabotropic glutamate receptors mGluR2 (Rattus norvegicus, UniProt P31421); assay: Effects of test compounds on cAMP accumulation (antagonism of glutamic acid suppression of Forskolin-stimulated cAMP) in CHO cells expressing mGluR2; type: cell-based; settings: CHO cells stably expressing mGluR2; 50% inhibition of suppression by 30 μM glutamic acid of cAMP increase by 10^-5 M Forskolin; cAMP EIA kit
T1 construct: expressed in transfected cells
Protocol: Experimental Example (Effects of Test Compounds on cAMP Accumulation)
CHO cells stably expressing metabotropic glutamate receptors mGluR2 were seeded in a 96-well plate in the ratio of 1.26×10^4 cells/well/0.32 cm^2/150 μl in Dalbeco-modified Eagle medium [1% proline, 50 units/ml penicillin, 50 μg/ml streptomycin, 2 mM L-glutamine (added when used)] containing 10% dialyzed fetal bovine serum, and were cultured for 2 days at 37° C. under an atmosphere of 5% CO2. Subsequently, the medium was replaced with an L-glutamine free medium. Four hours later, the supernatant liquid was aspirated. […] A study was carried out for the antagonistic effects of the test compounds on the Forskolin stimulation cAMP accumulation quantity suppression [for control, the conditions were set with no addition of the compounds (Tanabe et al., Neuron, 8, 169-179 (1992))]. The reactions were quenched by adding 100 μl of ice-cooled ethanol, the entire quantity of the supernatant liquid was collected in a separate plate, and was subsequently dried up at normal temperature with an evaporator, followed by preservation at −20° C. In the dried-up samples, the quantity of cAMP was measured using a cAMP EIA kit (from the Amasham company). The control value was subtracted from each cAMP quantity. […]

T1 sequence (P31421 19-872): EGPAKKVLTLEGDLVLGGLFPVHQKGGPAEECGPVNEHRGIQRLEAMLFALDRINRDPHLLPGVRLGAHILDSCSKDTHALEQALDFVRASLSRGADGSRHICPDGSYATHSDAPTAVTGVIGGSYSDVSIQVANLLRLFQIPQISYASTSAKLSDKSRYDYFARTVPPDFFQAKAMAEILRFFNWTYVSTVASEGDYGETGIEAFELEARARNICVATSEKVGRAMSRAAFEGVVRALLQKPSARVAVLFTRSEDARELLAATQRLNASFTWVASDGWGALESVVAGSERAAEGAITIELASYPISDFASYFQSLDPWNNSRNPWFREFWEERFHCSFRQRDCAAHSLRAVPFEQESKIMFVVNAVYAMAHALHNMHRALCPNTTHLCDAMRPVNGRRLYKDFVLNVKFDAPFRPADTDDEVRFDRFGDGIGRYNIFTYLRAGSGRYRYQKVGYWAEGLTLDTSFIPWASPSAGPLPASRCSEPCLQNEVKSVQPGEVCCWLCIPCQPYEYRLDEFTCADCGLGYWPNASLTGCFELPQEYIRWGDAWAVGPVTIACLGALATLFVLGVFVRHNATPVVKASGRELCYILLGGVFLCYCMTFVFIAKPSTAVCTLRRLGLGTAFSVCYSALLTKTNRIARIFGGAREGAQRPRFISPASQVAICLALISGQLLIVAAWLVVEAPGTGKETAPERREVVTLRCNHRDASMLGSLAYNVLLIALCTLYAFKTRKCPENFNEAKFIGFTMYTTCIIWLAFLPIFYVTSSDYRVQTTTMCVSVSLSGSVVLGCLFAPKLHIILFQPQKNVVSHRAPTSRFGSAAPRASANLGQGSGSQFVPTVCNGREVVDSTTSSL

| melting point | IC50 [1] [nM] | Compound |
| --- | --- | --- |
| > 174 °C (dec.) |  | N[C@@]1(C(=O)O)C=C[C@@H]2[C@H]1[C@@]2(F)C(=O)O [Example 7, (1R,2S,5R,6R)-2-amino-6-fluoro-bicyclo[3.1.0]hex-3-ene-2,6-dicarboxylic acid] |
| > 172 °C (dec.) | 476 | N[C@@]1(C(=O)O)[C@H](O)C[C@@H]2[C@H]1[C@@]2(F)C(=O)O [Example 8, (1R,2R,3R,5R,6R)-2-amino-6-fluoro-3-hydroxy-bicyclo[3.1.0]hexane-2,6-dicarboxylic acid] |
